{"source": "patent EP0906335B1", "about": "“EBV TYPE B CTL EPITOPES” (THE COUNCIL OF THE QUEENSLAND INSTITUTE OF MEDICAL RESEARCH, priority 1996, dated 2008)"}
{"tested_on": "autologous PHA blasts", "assay": "CTL assay of type B specific culture B5 against overlapping EBNA-6B peptides (epitope mapping)", "assay_type": "cell-based", "details": "peptides preincubated with autologous PHA blasts; Fig. 3a, 3b", "procedure": "Assessment of peptide specific activity.\nThe type B specific culture B5 recognised the peptide corresponding to EBNA-6B residues 210-229 (peptide 12 of the EBNA-6B set) when assayed against individual 20-mer overlapping peptides preincubated with autologous PHA blasts (Fig. 3a). […] The corresponding peptide from the type A overlapping sequence was not recognised by this culture, thus confirming the type B specificity of these T cells."}
{"substance": "peptide 12: 20-mer overlapping peptide corresponding to EBNA-6B residues 210-229", "recognition by type B specific culture B5": "recognised"}
{"tested_on": "HLA", "assay": "not given", "details": "Table 4, from the cited reference; cited from earlier work"}
{"substance": "DEPASTEPVHDQLL", "HLA Restriction": "HLA A11"}
{"substance": "RYSIFFDY", "HLA Restriction": "HLA 24"}
{"substance": "FLRGRAYGL", "HLA Restriction": "HLA B8"}
{"substance": "NPTQAPVIQLVHAVY", "HLA Restriction": "HLA A11"}
{"substance": "RRRWRRLTV", "HLA Restriction": "HLA B27"}
{"substance": "QPRAPIRPI", "HLA Restriction": "HLA B7"}
{"substance": "SVRDRLARL", "HLA Restriction": "HLA A2"}
{"substance": "TVFYNIPPNIPL", "HLA Restriction": "HLA DQ2"}
{"substance": "VSFIEFVGW", "HLA Restriction": "HLA B57"}
{"substance": "TSLYNLRRGTALA", "HLA Restriction": "HLA DR1"}
{"substance": "EENLLDFVRF", "HLA Restriction": "HLA B44"}
{"substance": "VEITPYKPTW", "HLA Restriction": "HLA B44"}
{"substance": "DTPLIPLTIF", "HLA Restriction": "HLA B51/A2"}
{"substance": "KEHVIQNAF", "HLA Restriction": "HLA B44"}
{"substance": "LPGPQVTAVLLHEES", "HLA Restriction": "HLA A11"}
{"substance": "CLGGLLTMV", "HLA Restriction": "HLA A2"}
{"substance": "RPPIFIRRL", "HLA Restriction": "HLA B7"}
{"substance": "RLRAEAGVK", "HLA Restriction": "HLA A3"}
{"tested_on": "autologous PHA-blasts", "assay": "CTL assay of culture A3 against overlapping EBNA-6B peptides (epitope mapping)", "details": "peptides on autologous PHA-blasts; Fig. 4a, 4b"}
{"substance": "peptide 19: 20-mer overlapping peptide of EBNA-6B, residues 280-299", "recognition by culture A3": "reactive"}
